Here are results for eleven compounds from ChEMBL document CHEMBL1201862, “PubChem BioAssay data set” (2004).

Test systems include A549; HCC 2998; SK-MEL-5; EKVX; K562; SNB-75; A498; CAKI-1; IGROV-1; OVCAR-5; SF-268; KM12; CCRF-CEM; SF-295; HCT-116; MOLT-4; NCI-H23; MDA-MB-231; PC-3; HL-60.
Assay in all cases: NCI tumour cell line growth inhibition, 48 h

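Cultured in 96-well plates, cells were exposed to test compound for 48 hours across five concentrations. Abbreviation: GI50, concentration required for 50% inhibition of growth.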 Active and inactive are the calls of the source. Cut-off read from the data, not from the text of the source: active = GI50 up to about 1.1 µM and inactive = higher.

For the compound `CCCCCCCCC/C=C1/CC(CO)(COC(=O)c2ccccc2)OC1=O` (stereo not drawn), the GI50 in the experiment on A549 was 12.9 µM (inactive); in the experiment on HCC 2998, 14.6 µM (inactive); in the experiment on SK-MEL-5, 3.78 µM (inactive); in the experiment with EKVX, 14.9 µM (inactive); in the experiment with K562 it was 3.89 µM (inactive); in the experiment with SNB-75 it was 10.2 µM (inactive). Moreover, the GI50 with A498 was 13.2 µM (inactive); with CAKI-1 it was 12.2 µM (inactive); in the experiment with IGROV-1, 16.1 µM (inactive); in the experiment on OVCAR-5 it was 12.2 µM (inactive); in the experiment on SF-268, 15.7 µM (inactive); in the experiment on KM12, 16.7 µM (inactive). Also, the GI50 is 10.9 µM (inactive) in the experiment with CCRF-CEM; 10 µM (inactive) in the experiment with SF-295; 23.2 µM (inactive) with HCT-116; 4.98 µM (inactive) in the experiment on MOLT-4; 15 µM (inactive) in the experiment with NCI-H23; 12.6 µM (inactive) with MDA-MB-231. Further, the GI50 with PC-3 was 10.8 µM (inactive).

In the case of `Nc1c(S(N)(=O)=O)cc(S(N)(=O)=O)cc1S(N)(=O)=O`, the GI50 in the experiment with A549, in the experiment with HCC 2998, in the experiment on SK-MEL-5, in the experiment with EKVX, with K562 and in the experiment with SNB-75 was > 100 µM (inactive) throughout. Also, the GI50 with A498, with CAKI-1, with IGROV-1, with OVCAR-5, in the experiment on SF-268 and with KM12 was > 100 µM (inactive) each time. The GI50 was > 100 µM (inactive) in the experiment with SF-295; > 100 µM (inactive) with HCT-116; > 100 µM (inactive) in the experiment with MOLT-4; > 100 µM (inactive) in the experiment on NCI-H23; > 100 µM (inactive) in the experiment with MDA-MB-231; 61.1 µM (inactive) with PC-3.

As to `Br[C@@H]1[C@H]2c3nc4ccccc4nc3[C@@H]1C[C@H]2Br`, the GI50 was 58.9 µM (inactive) with A549; > 100 µM (inactive) in the experiment with HCC 2998; 26.5 µM (inactive) in the experiment on SK-MEL-5; 86.1 µM (inactive) with EKVX; 47.5 µM (inactive) in the experiment with K562; 46.2 µM (inactive) in the experiment on A498. Further, the GI50 is > 100 µM (inactive) with CAKI-1; > 100 µM (inactive) in the experiment with IGROV-1; > 100 µM (inactive) in the experiment on OVCAR-5; > 100 µM (inactive) in the experiment on SF-268; 51.4 µM (inactive) in the experiment on KM12; 37 µM (inactive) in the experiment on CCRF-CEM. For the same compound, the GI50 in the experiment with SF-295 is 74.3 µM (inactive); in the experiment with HCT-116, 59.7 µM (inactive); in the experiment on MOLT-4, 31.7 µM (inactive); in the experiment on HL-60, 32.5 µM (inactive); in the experiment on NCI-H23, 58.3 µM (inactive); in the experiment on MDA-MB-231 it was > 100 µM (inactive). In the experiment with PC-3, the GI50 was 68.4 µM (inactive).

On to `CCOC(=O)c1c(SCCCN2CCCCC2)n(-c2ccccc2)c(=S)n(-c2ccccc2)c1=O`, for which the GI50 in the experiment on A549 was 17.3 µM (inactive); in the experiment with HCC 2998, 17.3 µM (inactive); with SK-MEL-5 it was 16.4 µM (inactive); in the experiment on EKVX, 27.8 µM (inactive); with K562, 5.48 µM (inactive); in the experiment with A498, 20.1 µM (inactive). The GI50 was 17.7 µM (inactive) in the experiment on OVCAR-5; 37.5 µM (inactive) in the experiment on SF-268; 19.2 µM (inactive) with KM12; 15.3 µM (inactive) with CCRF-CEM; 12.4 µM (inactive) in the experiment with HCT-116; 7.26 µM (inactive) in the experiment with MOLT-4. The GI50 is 2.62 µM (inactive) with HL-60, 18.6 µM (inactive) with NCI-H23, 19.4 µM (inactive) in the experiment with MDA-MB-231 and 16.4 µM (inactive) with PC-3.

With `O=C1Nc2ccc(Cl)cc2C(=O)N2CCC[C@@H]12`, the GI50 in the experiment with A549, with HCC 2998, in the experiment with SK-MEL-5, with EKVX, in the experiment with K562 and with SNB-75 was > 100 µM (inactive) each time. The GI50 in the experiment on A498, in the experiment on CAKI-1, in the experiment on IGROV-1, with OVCAR-5, with SF-268 and in the experiment on KM12 was > 100 µM (inactive) in each case. Also, the GI50 in the experiment with SF-295, in the experiment on HCT-116, in the experiment with MOLT-4, with NCI-H23, in the experiment on MDA-MB-231 and in the experiment with PC-3 was > 100 µM (inactive) each time.

For the compound `CCC(C)C(NC(=O)c1c2ccccc2nc2ccccc12)C(=O)O` (stereo not drawn), the GI50 was 77.3 µM (inactive) in the experiment on A549; > 100 µM (inactive) in the experiment with HCC 2998; 60 µM (inactive) with SK-MEL-5; > 100 µM (inactive) with EKVX; > 100 µM (inactive) in the experiment with K562; > 100 µM (inactive) in the experiment on SNB-75. The GI50 in the experiment on A498 is > 100 µM (inactive); in the experiment on CAKI-1, > 100 µM (inactive); in the experiment on IGROV-1, 86.5 µM (inactive); in the experiment with OVCAR-5 it was > 100 µM (inactive); with SF-268 it was > 100 µM (inactive); in the experiment on KM12 it was > 100 µM (inactive). In addition, the GI50 with CCRF-CEM is 31.7 µM (inactive); with SF-295, > 100 µM (inactive); in the experiment with HCT-116, > 100 µM (inactive); in the experiment on MOLT-4, > 100 µM (inactive); in the experiment on NCI-H23, 83 µM (inactive); in the experiment with MDA-MB-231, > 100 µM (inactive). For the same compound, in the experiment on PC-3, the GI50 is > 100 µM (inactive).

With `N=C(/C=C/c1ccc(-c2cn3cc(/C=C/C(=N)N4CCOCC4)ccc3n2)cc1)N1CCOCC1`, the GI50 in the experiment on A549, in the experiment with HCC 2998, in the experiment on SK-MEL-5, in the experiment on EKVX, with K562 and in the experiment on SNB-75 was > 100 µM (inactive) throughout. Moreover, the GI50 in the experiment on A498, with CAKI-1, with IGROV-1, in the experiment with OVCAR-5, in the experiment with SF-268 and with KM12 was > 100 µM (inactive) in each case. In addition, the GI50 in the experiment on SF-295, in the experiment with HCT-116, with NCI-H23, with MDA-MB-231 and in the experiment on PC-3 was > 100 µM (inactive) in each case.

As for `COc1cc(N(CCC#N)CCC#N)ccc1C(/N=N/c1cccc([N+](=O)[O-])c1)=N\NC(=O)c1ccc(C)cc1`, the GI50 with A549 was > 100 µM (inactive); in the experiment with HCC 2998, 26 µM (inactive); in the experiment with SK-MEL-5, 59 µM (inactive); with EKVX, 10.4 µM (inactive); in the experiment on K562, 73.5 µM (inactive); in the experiment on A498, > 100 µM (inactive). The GI50 is > 100 µM (inactive) with CAKI-1; > 100 µM (inactive) with IGROV-1; > 100 µM (inactive) with OVCAR-5; > 100 µM (inactive) in the experiment with SF-268; > 100 µM (inactive) in the experiment with KM12; 20.6 µM (inactive) with CCRF-CEM. For the same compound, the GI50 in the experiment on SF-295 was > 100 µM (inactive); in the experiment with HCT-116, 50.5 µM (inactive); with MOLT-4, 16.9 µM (inactive); with HL-60, 10.8 µM (inactive); with NCI-H23, 37.1 µM (inactive); in the experiment on MDA-MB-231, > 100 µM (inactive). Moreover, the GI50 with PC-3 is > 100 µM (inactive).

As to `O=C(Cn1c2ccc(Br)cc2c2nc3ccccc3nc21)N1CCOCC1`, the GI50 in the experiment with A549 was 98.4 µM (inactive); in the experiment on HCC 2998, > 100 µM (inactive); in the experiment on SK-MEL-5 it was > 100 µM (inactive); in the experiment on K562, > 100 µM (inactive); in the experiment with SNB-75, 22.1 µM (inactive); in the experiment with A498 it was > 100 µM (inactive). Further, the GI50 in the experiment on CAKI-1 was > 100 µM (inactive); in the experiment on IGROV-1, 49.7 µM (inactive); with OVCAR-5, > 100 µM (inactive); with SF-268, > 100 µM (inactive); in the experiment with KM12, > 100 µM (inactive); with CCRF-CEM, > 100 µM (inactive). Besides, the GI50 in the experiment with SF-295 is > 100 µM (inactive); with HCT-116 it was 50.2 µM (inactive); in the experiment with MOLT-4, > 100 µM (inactive); in the experiment with NCI-H23, 53 µM (inactive); in the experiment with MDA-MB-231, 63.5 µM (inactive); in the experiment on PC-3, 95.7 µM (inactive).

Take `Cc1ccc2c(=O)c3cccc(CC(=O)O)c3[nH]c2c1C`: the GI50 with A549 is > 100 µM (inactive); with HCC 2998 it was > 10 µM (inactive); in the experiment on SK-MEL-5, 33.3 µM (inactive); in the experiment with EKVX, > 100 µM (inactive); in the experiment with K562, > 100 µM (inactive); with A498, > 100 µM (inactive). In addition, the GI50 is > 100 µM (inactive) in the experiment with CAKI-1; > 100 µM (inactive) in the experiment on IGROV-1; 17.5 µM (inactive) with SF-268; > 100 µM (inactive) in the experiment with KM12; > 100 µM (inactive) with CCRF-CEM; > 100 µM (inactive) in the experiment with SF-295. For the same compound, the GI50 with HCT-116, in the experiment on MOLT-4, in the experiment with HL-60, with NCI-H23, in the experiment on MDA-MB-231 and with PC-3 was > 100 µM (inactive) throughout.

With `COc1cc2c[n+](C)c3c4cc(OC)c(OC)cc4c(OCc4ccccc4)cc3c2cc1OC`, the GI50 is 4.72 µM (inactive) with A549; 2.1 µM (inactive) with HCC 2998; 0.838 µM (active) with SK-MEL-5; > 100 µM (inactive) in the experiment with EKVX; 1.83 µM (inactive) in the experiment on K562; 0.199 µM (active) in the experiment with SNB-75. Also, the GI50 was 27.3 µM (inactive) in the experiment with A498; > 39.2 µM (inactive) with CAKI-1; > 100 µM (inactive) in the experiment with OVCAR-5; 0.0432 µM (active) in the experiment on SF-268; 2.1 µM (inactive) in the experiment on KM12; 4.89 µM (inactive) in the experiment with SF-295. The GI50 in the experiment with HCT-116 is 1.02 µM (active); in the experiment with MOLT-4 it was 0.592 µM (active); with NCI-H23, 1.32 µM (inactive); in the experiment on MDA-MB-231, 2.32 µM (inactive); in the experiment with PC-3 it was 0.877 µM (active).
